# From patent US20080305157A1, “Encapsulation and separation of charged organic solutes inside catanionic vesicles” (University of Maryland Office of Technology …, priority 2007, published 2008)
# Where “and” joins values, the source holds several entries; their conditions need not be identical. Equal entries are not always repeated. Structures can show the parent of a compound that is named as a salt.
# Key:
# [1] = Vesicle radius by dynamic light scattering (DLS); assay type: physicochemical; conditions: for Vesicle Radius after SEC by DLS CTAT-Rich V^+: V^+ vesicles with 1 mM solute; for Vesicle Radius after SEC by DLS SDBS-Rich V^−: V^− vesicles with 1 mM solute
# Experimental: Vesicle sizes in solution were monitored using dynamic light scattering (DLS) on a Photocor-FC instrument. The light source was a 5 mW laser at 633 nm and the scattering angle was 90°. A logarithmic correlator was used to obtain the autocorrelation function, which was analyzed by the method of cumulants to yield a diffusion coefficient. The apparent hydrodynamic size of the vesicles was obtained from the diffusion coefficient through the Stokes-Einstein relationship. The intensity (total counts) of the signal was also recorded for each sample.
# (§1) The apparent encapsulation efficiencies of the two vesicle preparations, V^+ and V^−, were also evaluated for the other solute molecules shown in FIG. 9. A solute concentration of 1 mM was used in all cases. Lucifer yellow (LY) is dianionic in water and Sulforhodamine 101 (SR101) is monanionic. […] Doxorubicin hydrochloride (Dox) is a cationic drug with a pKa of ˜7.619 that has been used to treat a variety of cancers. […] In each case, vesicles were prepared using aqueous solutions of the solute at a concentration of 1 mM. The solute/CTAT/SDBS mixtures were stirred for 30-60 min, or overnight, and the resulting vesicle solutions were allowed to equilibrate in the dark at room temperature for at least 48 h. Thereafter, the samples were passed through a 25 mm syringe filter (0.45 μm mesh) to remove any impurities. Dynamic light scattering was conducted to confirm vesicle formation and to measure the average vesicle size.
# A low solute concentration, e.g., 1 mM, was used in the experiments to ensure the stability of our vesicle formulations. […] Even at a concentration of 1 mM, some solutes may have a large effect on vesicle morphology. To study these aspects in some detail, dynamic light scattering (DLS) and small angle neutron scattering (SANS) were used. DLS was performed on purified vesicles obtained from the SEC column (after removing all the free solute); the sizes of solute-containing vesicles were compared with the sizes of neat vesicles (no solute). DLS gave radii of 74 nm for neat V^+ vesicles and 70 nm for neat V^− vesicles. Passing these neat vesicles through an SEC column changed their sizes slightly and the new radii were 81 nm for V^+ and 98 nm for V^− vesicles. […] However, while 1 mM of the anionic solute Lucifer yellow (LY) had no effect on V^− vesicles, it induced a 2.5 fold increase in the radii of V^+ vesicles.
# [2] = Dye adsorption: dye added to preformed vesicles, then SEC; assay type: physicochemical
# [3] = Separation of oppositely charged solute mixtures with catanionic vesicles by SEC; assay type: physicochemical; conditions: for Dye carried through SEC column within the V^+ vesicle band / Dye in the V^− vesicle band emerging from SEC column: equimolar CF and R6G, total dye 0.5 mM; for Dye carried through SEC column within the V^+ vesicle band: V^+ vesicles; for Dye in the V^− vesicle band emerging from SEC column: V^− vesicles; for Separation of LY and Dox by catanionic vesicles in SEC: total compound concentration 1 mM
# Experimental: Catanionic vesicles were prepared with equimolar mixtures of two solutes, the cationic organic dye rhodamine 6G (R6G) and the anionic dye carboxyfluorescein (CF). The total solute concentration was maintained at either 0.5 or 1.0 mM, and experiments were done with both positively charged vesicles (V^+) (excess of cationic CTAT) and negatively charged vesicles (V^−) (excess of anionic SDBS) formed from cetyltrimethylammonium tosylate (CTAT) and sodium dodecylbenzenesulfonate (SDBS).
# Experiments with these solute mixtures were performed and analyzed by performing size exclusion chromatography on the sample and measuring the dye concentration of each fraction to obtain an apparent encapsulation value, ε, for each dye (see below). The dye concentration in each fraction was determined by UV-vis spectroscopy. To account for the overlapping of the dye spectra, we subtracted a scaled spectrum of pure R6G from the total spectrum in order to find the peak absorbance of CF.
# [4] = Long-term CF release from vesicles by self-quenching fluorescence, R(t); assay type: physicochemical
# Experimental: The self-quenching behavior of carboxyfluorescein (CF) was used to monitor dye efflux from vesicles. CF is a widely used probe for vesicle encapsulation due to its ability to undergo efficient self-quenching of fluorescence at millimolar concentrations. For example, when 60 mM CF is entrapped in vesicles, its fluorescence intensity is reduced by 60-80%, but as the dye is released from the vesicle, and thus diluted by the surrounding buffer, its fluorescence intensity increases.
# Samples were checked on a specific day by placing a fixed aliquot (1.5 mL) into a 1 cm cuvette and monitoring its emission at 520 nm while exciting at 490 nm using a Spex Fluorolog-3 spectrometer. The intensity was monitored for several minutes to establish the baseline fluorescence intensity, which contains a contribution from both free and encapsulated dyes. After the baseline was established, 100 uL of 10% (w/w) aqueous Triton X-100 was added to disrupt the vesicles. Vesicle disruption results in the release of all dye molecules into solution and a concomitant increase in fluorescence. For these experiments, a substantial volume of sample was prepared on the first day and run on the SEC column to remove free dye. […] The traces show the emission intensity before and after the addition of Triton X-100, a nonionic detergent that disrupts both lipid and surfactant vesicles. […] As expected, the largest jump occurs for the freshly prepared vesicle solution where all the dye is encapsulated in the vesicles. We compare the magnitude of the jump on Day x with the highest jump (Day 0) and thereby obtain the fraction of the dye released on day x, R(t=x), the calculation of which is described below. […]
# To monitor long-term leakage rates, the fraction of dye released as a function of time, R(t), was calculated for a given day. This quantity measures the fraction of encapsulation on Day x relative to the initial value on Day 0:
# where F(initial) and F(final) are the fluorescence intensities before and after adding the Triton X-100. […]
# [5] = Apparent encapsulation efficiency (ε) of solutes in vesicles by SEC and UV-vis; assay type: physicochemical; conditions: inner water pool only
# [6] = assay type: physicochemical
# Experimental: A more general procedure based on SEC that can be applied to a wide range of solutes, including non-self-quenching and non-fluorescent ones was also used. The initial vesicle-solute mixture was purified using SEC (as described above) to remove the free, unencapsulated solute. The sample was then checked for release of solute from the vesicles over the course of several weeks. For this purpose, small-scale separations using quick-spin columns pre-packed with Sephadex G50 (fine) were performed (column from Roche, additional beads for repacking the columns from Sigma). On a specific day, a 100 μL aliquot was run through a quick-spin column by centrifugation (3000 rpm, 15 s), and the eluted fraction was evaluated using UV-vis spectroscopy. Any solute that had been released from the vesicles was retained by the quick-spin column. Therefore, the amount of solute eluted by the column corresponded to the solute still encapsulated by the vesicles. The UV-vis absorption value for the eluted sample was divided by the corresponding value obtained on day zero (immediately after SEC) to yield a fraction of solute that remains encapsulated in the vesicles. This method directly yielded the apparent encapsulation, ε, as a function of time. […]
# [7] = Apparent encapsulation efficiency (ε) of solutes in vesicles by SEC and UV-vis; assay type: physicochemical; conditions: 1 wt% surfactant, 1 mM solute; for ε (Apparent Encapsulation Efficiency) SDBS-Rich V^−: V^− vesicles 3:7 w/w CTAT:SDBS; for ε (Apparent Encapsulation Efficiency) CTAT-Rich V^+: V^+ vesicles 7:3 w/w CTAT:SDBS
# Experimental: For the determination of encapsulation efficiencies, vesicles were prepared using aqueous solutions containing 1.0 mM carboxyfluorescein (CF) dye. The formation of CTAT-rich vesicles (7:3 CTAT to SDBS w/w) appeared to be inhibited at CF concentrations of 5 mM or greater. High concentrations of CF (and similarly, other solutes) tended to disrupt the vesicles and lead to precipitation over time. Vesicle stability appeared to be unaffected when the solute concentration is kept below 5 mM, and at these concentrations solute encapsulation does occur. For CF, a pH ˜9 was required in order to fully dissolve the dye, and the stock solutions were adjusted accordingly. The CF/CTAT/SDBS solutions were stirred for 15-30 min and the resulting vesicle solutions were allowed to equilibrate in the dark at room temperature for at least 48 h. Dynamic light scattering (DLS) was then used to confirm vesicle formation. SDBS-rich vesicles (e.g., 3:7 CTAT to SDBS w/w) could be prepared with higher CF concentrations (up to ca. 100 mM); however CF encapsulation in these vesicles was reduced relative to that of CTAT-rich vesicles and in many cases CF encapsulation by SDBS-rich vesicles (i.e., the formation of distinct bands in the chromatography column, see below) was not achieved.
# as §1
# To measure the apparent encapsulation efficiency ε, size exclusion chromatography (SEC) was used to separate the free solute from that encapsulated by the vesicles. A 2×25 cm column packed with Sephadex G50 resin (medium mesh, Amersham Biosciences) or a 1.3 cm×21 cm SEC column packed with Sephadex G50 resin (medium mesh, from Amersham Biosciences) was used. An aliquot of the vesicle-solute sample was run through the SEC column.
# During elution, vesicle solutions divided into bands that were visible with the naked eye or by UV lamp, e.g., in the case of CF dye containing vesicles, two clear bands, the leading band containing the dye-bearing vesicles and the second band containing the free dye. During elution, fractions were collected and analyzed, and a series of such fractions for a typical experiment is shown in FIG. 6 (the solute in FIG. 6 is CF). The band containing the vesicles was collected for further studies of vesicle leakage, as described below. Dynamic light scattering was used to determine which of the eluted fractions contained vesicles, and the vesicles were consistently found to elute at 5.5 ml, total elution volume.
# The amount of solute in each fraction was determined using UV-vis spectroscopy (Hitachi U-3010 Spectrometer). The encapsulation efficiency (ε) value is defined as the amount of encapsulated solute relative to the total initial amount of solute:
# V designates volume, A designates absorbance, i denotes initial values taken from the original preparation, and f denotes values taken from the fractions eluted from the SEC column shown by dynamic light scattering to contain vesicles. Thus, the value of ε gives percentage of dye that is captured by the vesicles during their preparation. […]
# [8] = cited from earlier work
Molecule,Effect of solute on V^+ vesicle radii ([1]; 1 mM solute),Effect of solute on V^− vesicle radii ([1]; 1 mM solute),Vesicle Radius after SEC by DLS CTAT-Rich V^+ [1],Vesicle Radius after SEC by DLS SDBS-Rich V^− [1],Electrostatic adsorption contribution to overall apparent encapsulation efficiency ε ([2]; CF added to pre-formed V^+ vesicles vs vesicles formed with CF),Dye carried through SEC column within the V^+ vesicle band [3],Dye in the V^− vesicle band emerging from SEC column [3],Release rate slower than from EYPC vesicles ([4]; CF from V^+ vesicles vs EYPC vesicles),Period over which CF dye is released ([4]; EYPC vesicles),"Release of CF ([4]; V^+ vesicles, after 27 days)",Actual encapsulation efficiency for dye in the V^+ water pool [5],Half life in the vesicles [6],Retention of solute relative to liposomes ([6]; catanionic vesicles vs EYPC liposomes),ε (Apparent Encapsulation Efficiency) SDBS-Rich V^− [7],Separation of LY and Dox by catanionic vesicles in SEC [3],ε (Apparent Encapsulation Efficiency) CTAT-Rich V^+ [7],ε (Apparent Encapsulation Efficiency) SDBS-Rich V^− ([7]; hydrochloride),"ε when dye added to pre-made vesicles, as share of Table 1 value ([2]; R6G added to pre-made V^− vesicles)","Increase in the radii of V^+ vesicles ([1]; 1 mM solute, vs neat vesicles)",pKa [8]
5(6)-carboxyfluorescein [CF],essentially unchanged,essentially unchanged,87 ± 5 nm,91 ± 8 nm,about 75%,31%,negligible,at least 40 times,about 5 days,approximately 20%,ca. 5%,114 days,40-60 times,1.0 ± 0.4%,,,,,,
"COc1cccc2c1C(=O)c1c(O)c3c(c(O)c1C2=O)C[C@@](O)(C(=O)CO)C[C@@H]3O[C@H]1C[C@H](N)[C@H](O)[C@H](C)O1 [Dox, doxorubicin hydrochloride]",,,143 ± 32 nm,93 ± 4 nm,,,,,,,,,,,Very efficient separation,0%,55%,,,~7.619
Lucifer yellow [LY],,no effect,208 ± 18 nm,96 ± 3 nm,,,,,,,,,,4%,Very efficient separation,40 ± 20%,,,2.5 fold,

# More lines, main results first:
Effect of solute on V^+ vesicle radii ([1]; 1 mM solute),Effect of solute on V^− vesicle radii ([1]; 1 mM solute),Vesicle Radius after SEC by DLS CTAT-Rich V^+ [1],Vesicle Radius after SEC by DLS SDBS-Rich V^− [1],Electrostatic adsorption contribution to overall apparent encapsulation efficiency ε ([2]; CF added to pre-formed V^+ vesicles vs vesicles formed with CF),Dye carried through SEC column within the V^+ vesicle band [3],Dye in the V^− vesicle band emerging from SEC column [3],Release rate slower than from EYPC vesicles ([4]; CF from V^+ vesicles vs EYPC vesicles),Period over which CF dye is released ([4]; EYPC vesicles),"Release of CF ([4]; V^+ vesicles, after 27 days)",Actual encapsulation efficiency for dye in the V^+ water pool [5],Half life in the vesicles [6],Retention of solute relative to liposomes ([6]; catanionic vesicles vs EYPC liposomes),ε (Apparent Encapsulation Efficiency) SDBS-Rich V^− [7],Separation of LY and Dox by catanionic vesicles in SEC [3],ε (Apparent Encapsulation Efficiency) CTAT-Rich V^+ [7],ε (Apparent Encapsulation Efficiency) SDBS-Rich V^− ([7]; hydrochloride),"ε when dye added to pre-made vesicles, as share of Table 1 value ([2]; R6G added to pre-made V^− vesicles)","Increase in the radii of V^+ vesicles ([1]; 1 mM solute, vs neat vesicles)",Molecule,pKa [8]
,,156 ± 24 nm,109 ± 16 nm,,no detectable,88%,,,,,,,72% and 72 ± 3%,,0.07 ± 0.1%,,ca. 85%,,"CCN=c1cc2oc3cc(NCC)c(C)cc3c(-c3ccccc3C(=O)OCC)c-2cc1C.Cl [R6G, rhodamine 6G]",
,,122 ± 38 nm,84 ± 7 nm,,,,,,,,,,8.2%,,32.8%,,,,"O=S(=O)([O-])c1cc(S(=O)(=O)O)ccc1C1=c2cc3c4c(c2Oc2c1cc1c5c2CCCN5CCC1)CCC[N+]=4CCC3 [SR 101, sulforhodamine 101]",
